Where “and” joins values, the source holds several entries; their conditions need not be identical. Equal entries are not always repeated. Inconclusive results and toxic doses are left out. Rule for the calls: active = survival T/C of 150% or more; inactive = T/C below 125% in these data.
Test system: P388 leukemia ip, CD2F1 mice, survival T/C
Assay: NCI In Vivo Anticancer Drug Screen. Data for tumor model P388 Leukemia (intraperitoneal) in CD2F1 (CDF1) mice
Settings: endpoint: median survival time, higher = longer survival
Summary of the method: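 Mice carrying the transplanted tumor received test compound or vehicle. Survival was recorded in each group, and the value is the treated-group measurement divided by that of the vehicle-treated control group.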

[1] = dose: 50.0 mg/kg/injection, schedule: Q01DX009 (ip), vehicle: Klucel (hydroxypropylcellulose) (HPC)
[2] = dose: 100.0 mg/kg/injection, schedule: Q01DX009 (ip), vehicle: Klucel (hydroxypropylcellulose) (HPC)
[3] = dose: 200.0 mg/kg/injection, schedule: Q01DX009 (ip), vehicle: Klucel (hydroxypropylcellulose) (HPC)
[4] = dose: 50.0 mg/kg/injection, schedule: Q01DX005 (ip), vehicle: Klucel (hydroxypropylcellulose) (HPC)
[5] = dose: 100.0 mg/kg/injection, schedule: Q01DX005 (ip), vehicle: Klucel (hydroxypropylcellulose) (HPC)
[6] = dose: 50.0 mg/kg/injection, schedule: Q01DX009 (ip), vehicle: saline with Tween-80
[7] = dose: 100.0 mg/kg/injection, schedule: Q01DX009 (ip), vehicle: saline with Tween-80
[8] = dose: 200.0 mg/kg/injection, schedule: Q01DX009 (ip), vehicle: saline with Tween-80
[9] = dose: 50.0 mg/kg/injection, schedule: Q01DX005 (ip), vehicle: saline with Tween-80
[10] = dose: 100.0 mg/kg/injection, schedule: Q01DX005 (ip), vehicle: saline with Tween-80
[11] = dose: 60.0 mg/kg/injection, schedule: Q01DX005 (ip), vehicle: saline with Tween-80
[12] = dose: 120.0 mg/kg/injection, schedule: Q01DX005 (ip), vehicle: saline with Tween-80
[13] = dose: 240.0 mg/kg/injection, schedule: Q01DX005 (ip), vehicle: saline with Tween-80
[14] = dose: 200.0 mg/kg/injection, schedule: Q01DX005 (ip), vehicle: Klucel (hydroxypropylcellulose) (HPC)

Measured: T/C

CC(=O)OC1OC(C[Se][As](C)C)C(OC(C)=O)C(OC(C)=O)C1OC(C)=O (configuration not stated)
inactive: [1] 107 % of control | [2] 120 % of control | [3] 114 % of control

CCCCCCCCCCCCCCCCCCOP(=O)([O-])OCC[N+](C)(C)C
inactive: dose: 12.5 mg/kg/injection, schedule: Q01DX009 (ip), vehicle: saline 98 % of control | dose: 25.0 mg/kg/injection, schedule: Q01DX009 (ip), vehicle: saline 107 % of control

CC1CCC2(C)C(CC(O)[C@H](O)C2(C)O)C1(C)CCc1ccoc1 (some centres not stated)
inactive: dose: 3.5 mg/kg/injection, schedule: Q01DX005 (ip), vehicle: Klucel (hydroxypropylcellulose) (HPC) 108 % of control | dose: 7.0 mg/kg/injection, schedule: Q01DX005 (ip), vehicle: Klucel (hydroxypropylcellulose) (HPC) 103 % of control | dose: 14.0 mg/kg/injection, schedule: Q01DX005 (ip), vehicle: Klucel (hydroxypropylcellulose) (HPC) 106 % of control | dose: 25.0 mg/kg/injection, schedule: Q01DX005 (ip), vehicle: Klucel (hydroxypropylcellulose) (HPC) 101 % of control | dose: 28.0 mg/kg/injection, schedule: Q01DX005 (ip), vehicle: Klucel (hydroxypropylcellulose) (HPC) 104 % of control | [4] 92 % of control | [5] 97 % of control

O=C(O)c1ccccc1NC(c1ccccc1)c1ccc2cccnc2c1O (configuration not stated)
inactive: dose: 100.0 mg/kg/injection, schedule: Q04DX003 (ip), vehicle: Klucel (hydroxypropylcellulose) (HPC) 114 % of control and 115 % of control | dose: 200.0 mg/kg/injection, schedule: Q04DX003 (ip), vehicle: Klucel (hydroxypropylcellulose) (HPC) 113 % of control and 119 % of control

Fc1cc(F)c(F)c(OCC2CO2)c1F (configuration not stated)
inactive: [6] 100 % of control | [7] 94 % of control | [8] 101 % of control

C/C=C(\C)C(=O)OC1CC(OC(=O)/C(C)=C/C)C2(C)C3C(=O)C=C(C)C2C3C1(C)C (configuration not stated)
inactive: dose: 12.5 mg/kg/injection, schedule: Q01DX009 (ip), vehicle: Klucel (hydroxypropylcellulose) (HPC) 90 % of control | dose: 25.0 mg/kg/injection, schedule: Q01DX009 (ip), vehicle: Klucel (hydroxypropylcellulose) (HPC) 96 % of control | [1] 96 % of control | [2] 100 % of control

Cn1c(=O)c2c(-c3ccccc3)cc(-c3ccccc3)nc2n(C)c1=O
inactive: dose: 100.0 mg/kg/injection, schedule: Q04DX002 (ip), vehicle: saline with Tween-80 97 % of control | dose: 200.0 mg/kg/injection, schedule: Q04DX002 (ip), vehicle: saline with Tween-80 100 % of control | dose: 400.0 mg/kg/injection, schedule: Q04DX002 (ip), vehicle: saline with Tween-80 101 % of control

Cc1nc(-c2ccccc2)nc2c1nc(C(C)C)n2Nc1ccccc1
inactive: [9] 96 % of control | [10] 98 % of control

O=C(O)CCc1c2ccc(=O)c(O)c-2oc2c(O)c(O)ccc12
inactive: [11] 104 % of control | [12] 98 % of control | [13] 103 % of control

O=C1CS(=O)(=O)C(c2ccc(F)cc2)N1N1C(=O)CS(=O)(=O)C1c1ccc(F)cc1 (configuration not stated)
inactive: [11] 91 % of control | [12] 93 % of control | [13] 93 % of control

Nc1ccc2ccccc2c1N=Nc1ccccc1
inactive: [1] 117 % of control | [2] 118 % of control | [3] 120 % of control | dose: 400.0 mg/kg/injection, schedule: Q01DX009 (ip), vehicle: Klucel (hydroxypropylcellulose) (HPC) 117 % of control

CCOC(=O)c1ccc(NC(=O)Nc2ncc(Cl)cc2Cl)cc1
inactive: [6] 89 % of control | [7] 86 % of control | [8] 94 % of control

O=C(Nc1ccc(N=Nc2ccc(S(=O)(=O)O)cc2)cc1)c1ccc(N=Nc2cc(S(=O)(=O)O)c3ccccc3c2O)cc1
inactive: dose: 50.0 mg/kg/injection, schedule: Q01DX005 (ip), vehicle: saline 110 % of control | dose: 100.0 mg/kg/injection, schedule: Q01DX005 (ip), vehicle: saline 104 % of control

COc1cc2c(cc1OC(C)=O)C(=O)C(Br)CCC2 (configuration not stated)
inactive: [7] 89 % of control | [8] 86 % of control

C(/Oc1ccc(-c2ccccc2)cc1)=C(/c1ccccc1)c1ccccc1-c1ccccc1
inactive: [4] 101 % of control | [5] 99 % of control | [14] 92 % of control

NC(=O)C(F)C(N)C(=O)O (configuration not stated)
inactive: dose: 12.5 mg/kg/injection, schedule: Q01DX009 (ip), vehicle: suspension in saline 100 % of control | dose: 25.0 mg/kg/injection, schedule: Q01DX009 (ip), vehicle: suspension in saline 103 % of control | dose: 50.0 mg/kg/injection, schedule: Q01DX009 (ip), vehicle: suspension in saline 97 % of control

CC1(C)c2c3ccccc3cc3cccc(c23)[S+]1c1ccccc1 (configuration not stated)
inactive: dose: 5.0 mg/kg/injection, schedule: Q04DX003 (ip), vehicle: saline 100 % of control | dose: 10.0 mg/kg/injection, schedule: Q04DX003 (ip), vehicle: saline 104 % of control | dose: 20.0 mg/kg/injection, schedule: Q04DX003 (ip), vehicle: saline 108 % of control

Brc1cnc2nc(Cc3cccc4ccccc34)[nH]c2c1
inactive: dose: 100.0 mg/kg/injection, schedule: Q01DX001 (ip), vehicle: saline with Tween-80 109 % of control | dose: 200.0 mg/kg/injection, schedule: Q01DX001 (ip), vehicle: saline with Tween-80 103 % of control | dose: 400.0 mg/kg/injection, schedule: Q01DX001 (ip), vehicle: saline with Tween-80 97 % of control

COC(=O)c1[c]([Sn]([CH3])([CH3])[CH3])n[n]([Pb]([CH3])([CH3])[CH3])c1C(=O)OC
inactive: dose: 6.25 mg/kg/injection, schedule: Q04DX003 (ip), vehicle: saline 95 % of control | dose: 12.5 mg/kg/injection, schedule: Q04DX003 (ip), vehicle: saline 95 % of control | dose: 25.0 mg/kg/injection, schedule: Q04DX003 (ip), vehicle: saline 95 % of control

Cn1c(=S)[nH]c2sc3c(c2c1=O)CCCC3
inactive: [12] 97 % of control | [13] 96 % of control

N#Cc1ccc[n+](Cc2ccccc2)c1
inactive: [9] 100 % of control | [10] 103 % of control | dose: 200.0 mg/kg/injection, schedule: Q01DX005 (ip), vehicle: saline with Tween-80 100 % of control

C/C=C(\C)C(=O)OC1C(C)C2(O)C(C=C(CO)CC3(O)C(=O)C(C)=CC32)C2C(C)(C)C12OC(=O)CCCCCCCCC (configuration not stated)
inactive: dose: 0.13 mg/kg/injection, schedule: Q01DX009 (ip), vehicle: saline + alcohol 124 % of control | dose: 0.5 mg/kg/injection, schedule: Q01DX009 (ip), vehicle: saline + alcohol 124 % of control

CCCCCCCCCCCC[N+]1(CCCCCCCCCCCC)CCCC(C)C1 (configuration not stated)
inactive: dose: 0.75 mg/kg/injection, schedule: Q01DX009 (ip), vehicle: Klucel (hydroxypropylcellulose) (HPC) 113 % of control

Nc1cc2c(cn1)[nH]c1ccccc12
inactive: dose: 12.5 mg/kg/injection, schedule: Q01DX009 (ip), vehicle: other 108 % of control | dose: 25.0 mg/kg/injection, schedule: Q01DX009 (ip), vehicle: other 101 % of control | dose: 50.0 mg/kg/injection, schedule: Q01DX009 (ip), vehicle: other 108 % of control | [11] 97 % of control | dose: 100.0 mg/kg/injection, schedule: Q01DX009 (ip), vehicle: other 106 % of control | [12] 106 % of control

O=C(NC(=S)Nc1ccccc1)c1ccccc1
inactive: dose: 9.4 mg/kg/injection, schedule: Q01DX009 (ip), vehicle: Klucel (hydroxypropylcellulose) (HPC) 106 % of control | dose: 18.75 mg/kg/injection, schedule: Q01DX009 (ip), vehicle: Klucel (hydroxypropylcellulose) (HPC) 101 % of control | dose: 37.5 mg/kg/injection, schedule: Q01DX009 (ip), vehicle: Klucel (hydroxypropylcellulose) (HPC) 94 % of control | dose: 75.0 mg/kg/injection, schedule: Q01DX009 (ip), vehicle: Klucel (hydroxypropylcellulose) (HPC) 96 % of control

CC(=O)C(C)P(=O)(O)O (configuration not stated)
inactive: dose: 50.0 mg/kg/injection, schedule: Q01DX009 (ip), vehicle: saline 99 % of control | dose: 100.0 mg/kg/injection, schedule: Q01DX009 (ip), vehicle: saline 101 % of control | dose: 200.0 mg/kg/injection, schedule: Q01DX009 (ip), vehicle: saline 106 % of control

CCn1ccc(NS(=O)(=O)c2ccc(N)cc2)nc1=O
inactive: [4] 98 % of control | [5] 105 % of control | [14] 100 % of control

From PubChem BioAssay AID330 (DTP/NCI, 2004)
